Measurements from US20260373248A1, “DEGRADABLE PEPTOIDS” (Medici Therapeutics, Inc., priority 2023, published 2026).
Non-standard residues stand in square brackets, D forms with d. Residues, ends and D or L forms follow the SMILES beside them. *: point of attachment. Gly(N-(3-decanoyloxypropyl)) = CCCCCCCCCC(=O)OCCCNCC(=O)O; N(3-lauroyloxypropyl)Gly = CCCCCCCCCCCC(=O)OCCCNCC(=O)O; N(2-decanoyloxyethyl)Gly = CCCCCCCCCC(=O)OCCNCC(=O)O; Gly(N-3-morpholinopropyl) = O=C(O)CNCCCN1CCOCC1; N(2-ethylhexyl)Gly = CCCCC(CC)CNCC(=O)O; Gly(N-dodecyl) = CCCCCCCCCCCCNCC(=O)O; N(CH(CH2OH)2)Gly = O=C(O)CNC(CO)CO; NHexGly = CCCCCCNCC(=O)O; For = O=C*

Experiments:
luciferase = assay: Luciferase expression after local (intramuscular or subcutaneous) administration of mRNA; type: in vivo; conditions: mRNA 0.01 mpk, 6 hours; for IM Flux: intramuscular; for SC Flux: subcutaneous
Outline: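 Female Balb/c mice (6-8 weeks) received fLuc mRNA in aminolipidated peptoid Nutshells at 0.01 mpk subcutaneously or intramuscularly, or 0.1 mpk intratumorally. At 6 hours, anesthetized mice were given D-luciferin IP and imaged 10 minutes later; harvested organs were also imaged and total photon flux quantified in regions of interest.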

hEPO = assay: Quantification of hEPO in serum after IV injection of mRNA (Human EPO ELISA); type: in vivo; conditions: Balb/c mice, 2.5 μg mRNA IV, serum after 6 hours
Outline: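 Balb/c mice received 2.5 μg mRNA encoding human EPO by IV injection; serum was collected after 6 hours. hEPO was measured by sandwich ELISA (biotin-conjugate, streptavidin-HRP, TMB, A450) against kit standards (mIU/mL) and an external standard (ng/mL), with values interpolated and corrected for dilution.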

mRNA = mRNA encapsulation (modified Quant-iT RiboGreen assay); type: physicochemical; conditions: for mean percent encapsulation of RNA: RiboGreen, without vs with Triton X-100; for % Encapsulation: mRNA
Outline: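 Peptoid nanoparticles were incubated with Triton X-100 for 10 min to release entrapped mRNA, then mixed with RiboGreen reagent and read by fluorescence (ex 485 nm/em 530 nm). Percent encapsulation was derived from the ratio of fluorescence without versus with Triton X-100.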

firefly luciferase = assay: In vivo firefly luciferase expression after intravenous injection of fLuc mRNA delivery vehicles (IVIS imaging); design: species or system female Balb/c mice; conditions: for Total Flux (luciferase expression): fLuc mRNA, intravenous, Balb/c mice; for Total Flux: mice, 2.5 ug fLuc mRNA intravenously, 6 hours post-injection
Outline: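 Female Balb/c mice (6-8 weeks) given 2.5 ug fLuc mRNA in Nutshells IV. At 6 hours, IP D-luciferin (30 mg/mL, 10 μL/g) under isoflurane; IVIS imaging 10 minutes later, then harvested organs imaged ex vivo. Read-out: total photon flux in regions of interest.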

[1] = Delivery vehicle size and polydispersity by dynamic light scattering; type: physicochemical
Outline: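 LNPs made by microfluidic mixing of ethanolic peptoid/DSPC/cholesterol/DMG-PEG2000 (20:1.79:7.16:1.84 by weight) with mRNA in 10 mM citrate pH 5.0 at 1:3 by volume, then dialyzed overnight at 4 °C against tris-sucrose pH 7.4. Size and PDI read by dynamic light scattering in PBS.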

[2] = Peptoid quantity remaining in liver by HPLC-TOF mass spectrometry; type: in vivo; conditions: liver homogenate
Outline: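 Whole liver weighed; 20 mg tissue bead-homogenized in IPA/MeOH (8/2) with internal standard, centrifuged, supernatant run on BEH C8 HPLC-TOF MS. Peptoid concentration derived from linear calibration curve (0.2-50 μg/g) prepared in spiked untreated liver.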

[3] = DLS in PBS, peptoid:DSPC:Cholesterol:DMG-PEG2000 weight ratio 20:1.79:7.16:1.84, mRNA

## CCCCCCCCCCCC(=O)OCCCN(CC(=O)N(CC(=O)N(CC(=O)N(CCCOC(=O)CCCCCCCCCCC)CC(=O)N(CC(=O)N(CC(N)=O)CC(CC)CCCC)CC(CC)CCCC)CC(CC)CCCC)CC(CC)CCCC)C(=O)CNC(CO)CO (centres unmarked) [Compound 51] (H-[N(CH(CH2OH)2)Gly][N(3-lauroyloxypropyl)Gly][N(2-ethylhexyl)Gly][N(2-ethylhexyl)Gly][N(3-lauroyloxypropyl)Gly][N(2-ethylhexyl)Gly][N(2-ethylhexyl)Gly]-NH2)
luciferase
  IM Flux: 1.84E+08 p/s
  SC Flux: 2.26E+08 p/s
hEPO
  hEPO: 591 ng/mL
mRNA
  mean percent encapsulation of RNA: 80.3%
mRNA; formulation recipe D22
  % Encapsulation: 80.3%
mRNA; formulation recipe O5
  % Encapsulation: 91.9%
mRNA; formulation recipe O6
  % Encapsulation: 91.8%
Firefly luciferase; formulation recipe D22
  Total Flux (luciferase expression): 4.42E+09 p/s
Firefly luciferase; formulation recipe O5
  Total Flux (luciferase expression): 1.50E+09 p/s
Firefly luciferase; formulation recipe O6
  Total Flux (luciferase expression): 1.27E+09 p/s
Firefly luciferase
  Total Flux: 4.42E+09 p/s
[1]; [3]
  PDI: 0.128
  Particle Size: 61.4 nm
[1]; formulation recipe D22
  Particle Size: 61.4 nm
[1]; formulation recipe O5
  Particle Size: 58.4 nm
[1]; formulation recipe O6
  Particle Size: 56.7 nm
[2]
  % of injected dose remaining in liver: 16.40%

## CCCCCCCCCCCCN(C=O)CC(=O)N(CCCOC(=O)CCCCCCCCC)CC(=O)N(CC(=O)N(CCCN1CCOCC1)CC(=O)N(CC(=O)N(CCCOC(=O)CCCCCCCCC)CC(=O)N(CCCCCCCCCCCC)CC(N)=O)CC(CC)CCCC)CC(CC)CCCC (centres unmarked) [Compound 88] (For-[Gly(N-dodecyl)][Gly(N-(3-decanoyloxypropyl))][N(2-ethylhexyl)Gly][Gly(N-3-morpholinopropyl)][N(2-ethylhexyl)Gly][Gly(N-(3-decanoyloxypropyl))][Gly(N-dodecyl)]-NH2)
luciferase
  IM Flux: 4.29E+07 p/s
  SC Flux: 6.88E+07 p/s
hEPO
  hEPO: 109 ng/mL
mRNA
  mean percent encapsulation of RNA: 7.4%
mRNA; formulation recipe F2
  % Encapsulation: 71.8%
Firefly luciferase; formulation recipe F2
  Total Flux (luciferase expression): 1.59E+09 p/s
Firefly luciferase
  Total Flux: 3.77E+08 p/s
[1]; [3]
  PDI: 0.118
  Particle Size: 73.1 nm
[1]; formulation recipe F2
  Particle Size: 72.4 nm
[2]
  % of injected dose remaining in liver: 16.59%

## CCCCCCCCCC(=O)OCCCN(CC(=O)N(CC(=O)N(CC(=O)N(CCCOC(=O)CCCCCCCCC)CC(=O)N(CC(N)=O)CC(CC)CCCC)CC(CC)CCCC)CC(CC)CCCC)C(=O)CN(CC(CC)CCCC)C(=O)CNC(CO)CO (centres unmarked) [Compound 5] (H-[N(CH(CH2OH)2)Gly][N(2-ethylhexyl)Gly][Gly(N-(3-decanoyloxypropyl))][N(2-ethylhexyl)Gly][N(2-ethylhexyl)Gly][Gly(N-(3-decanoyloxypropyl))][N(2-ethylhexyl)Gly]-NH2)
luciferase
  IM Flux: 1.62E+08 p/s
  SC Flux: 1.71E+08 p/s
hEPO
  hEPO: 278 ng/mL
mRNA
  mean percent encapsulation of RNA: 84.8%
mRNA; formulation recipe D22
  % Encapsulation: 84.8%
mRNA; formulation recipe O3
  % Encapsulation: 82.2%
mRNA; formulation recipe O7
  % Encapsulation: 93.5%
Firefly luciferase; formulation recipe D22
  Total Flux (luciferase expression): 1.77E+09 p/s
Firefly luciferase; formulation recipe O3
  Total Flux (luciferase expression): 3.25E+09 p/s
Firefly luciferase; formulation recipe O7
  Total Flux (luciferase expression): 1.93E+09 p/s
Firefly luciferase
  Total Flux: 1.77E+09 p/s
[1]; [3]
  PDI: 0.076
  Particle Size: 86.2 nm
[1]; formulation recipe D22
  Particle Size: 86.2 nm
[1]; formulation recipe O3
  Particle Size: 81.6 nm
[1]; formulation recipe O7
  Particle Size: 51.7 nm
[2]
  % of injected dose remaining in liver: 14.71%

## CCCCCCCCCCCC(=O)OCCCN(CC(=O)N(CC(=O)N(CCCN1CCOCC1)CC(=O)N(CC(=O)N(CCCOC(=O)CCCCCCCCCCC)CC(=O)N(CC(N)=O)CC(CC)CCCC)CC(CC)CCCC)CC(CC)CCCC)C(=O)CN(C=O)CC(CC)CCCC (centres unmarked) [Compound 80] (For-[N(2-ethylhexyl)Gly][N(3-lauroyloxypropyl)Gly][N(2-ethylhexyl)Gly][Gly(N-3-morpholinopropyl)][N(2-ethylhexyl)Gly][N(3-lauroyloxypropyl)Gly][N(2-ethylhexyl)Gly]-NH2)
luciferase
  IM Flux: 2.20E+08 p/s
  SC Flux: 4.16E+08 p/s
hEPO
  hEPO: 481 ng/mL
mRNA
  mean percent encapsulation of RNA: 65.7%
mRNA; formulation recipe D22
  % Encapsulation: 65.7%
mRNA; formulation recipe O1
  % Encapsulation: 80.5%
mRNA; formulation recipe O5
  % Encapsulation: 82.6%
Firefly luciferase; formulation recipe D22
  Total Flux (luciferase expression): 3.74E+09 p/s
Firefly luciferase; formulation recipe O1
  Total Flux (luciferase expression): 2.74E+09 p/s
Firefly luciferase; formulation recipe O5
  Total Flux (luciferase expression): 2.71E+09 p/s
Firefly luciferase
  Total Flux: 3.74E+09 p/s
[1]; [3]
  PDI: 0.109
  Particle Size: 78.1 nm
[1]; formulation recipe D22
  Particle Size: 78.1 nm
[1]; formulation recipe O1
  Particle Size: 68.2 nm
[1]; formulation recipe O5
  Particle Size: 68.5 nm
[2]
  % of injected dose remaining in liver: 13.58%

## CCCCCCCCCC(=O)OCCCN(CC(N)=O)C(=O)CN(CC(CC)CCCC)C(=O)CN(CCCOC(=O)CCCCCCCCC)C(=O)CN(CCCOC(=O)CCCCCCCCC)C(=O)CN(CC(CC)CCCC)C(=O)CN(CCCOC(=O)CCCCCCCCC)C(=O)CNC(CO)CO (centres unmarked) [Compound 53] (H-[N(CH(CH2OH)2)Gly][Gly(N-(3-decanoyloxypropyl))][N(2-ethylhexyl)Gly][Gly(N-(3-decanoyloxypropyl))][Gly(N-(3-decanoyloxypropyl))][N(2-ethylhexyl)Gly][Gly(N-(3-decanoyloxypropyl))]-NH2)
luciferase
  IM Flux: 5.34E+08 p/s
  SC Flux: 2.78E+08 p/s
hEPO
  hEPO: 71.6 ng/mL
mRNA
  mean percent encapsulation of RNA: 36.0%
Firefly luciferase
  Total Flux: 4.46E+08 p/s
[1]; [3]
  PDI: 0.153
  Particle Size: 88.5 nm
[2]
  % of injected dose remaining in liver: 0.13%

## CCCCCCCCCC(=O)OCCN(CC(=O)N(CCOC(=O)CCCCCCCCC)CC(=O)N(CC(=O)N(CCOC(=O)CCCCCCCCC)CC(=O)N(CCOC(=O)CCCCCCCCC)CC(=O)N(CC(N)=O)CC(CC)CCCC)CC(CC)CCCC)C(=O)CN(C=O)CCCN1CCOCC1 (centres unmarked) [Compound 76] (For-[Gly(N-3-morpholinopropyl)][N(2-decanoyloxyethyl)Gly][N(2-decanoyloxyethyl)Gly][N(2-ethylhexyl)Gly][N(2-decanoyloxyethyl)Gly][N(2-decanoyloxyethyl)Gly][N(2-ethylhexyl)Gly]-NH2)
luciferase
  IM Flux: 1.70E+08 p/s
  SC Flux: 8.95E+07 p/s
hEPO
  hEPO: 2140 ng/mL
mRNA
  mean percent encapsulation of RNA: 56.4%
mRNA; formulation recipe D22
  % Encapsulation: 56.4%
mRNA; formulation recipe R1
  % Encapsulation: 82.7%
mRNA; formulation recipe R5
  % Encapsulation: 88.1%
mRNA; formulation recipe R6
  % Encapsulation: 87.6%
mRNA; formulation recipe R7
  % Encapsulation: 79.9%
Firefly luciferase; formulation recipe D22
  Total Flux (luciferase expression): 5.54E+09 p/s
Firefly luciferase; formulation recipe R1
  Total Flux (luciferase expression): 5.94E+08 p/s
Firefly luciferase; formulation recipe R5
  Total Flux (luciferase expression): 1.00E+09 p/s
Firefly luciferase; formulation recipe R6
  Total Flux (luciferase expression): 2.28E+09 p/s
Firefly luciferase; formulation recipe R7
  Total Flux (luciferase expression): 4.00E+09 p/s
Firefly luciferase
  Total Flux: 5.54E+09 p/s
[1]; [3]
  PDI: 0.095
  Particle Size: 75.4 nm
[1]; formulation recipe D22
  Particle Size: 75.4 nm
[1]; formulation recipe R1
  Particle Size: 66.0 nm
[1]; formulation recipe R5
  Particle Size: 67.2 nm
[1]; formulation recipe R6
  Particle Size: 74.4 nm
[1]; formulation recipe R7
  Particle Size: 75.3 nm
[2]
  % of injected dose remaining in liver: 7.34%

## CCCCCCCCCCCC(=O)OCCCN(CC(=O)N(CC(N)=O)CC(CC)CCCC)C(=O)CN(CCCCCC)C(=O)CN(CC(CC)CCCC)C(=O)CN(CCCOC(=O)CCCCCCCCCCC)C(=O)CN(CCCCCC)C(=O)CNC(CO)CO (centres unmarked) [Compound 54] (H-[N(CH(CH2OH)2)Gly][NHexGly][N(3-lauroyloxypropyl)Gly][N(2-ethylhexyl)Gly][NHexGly][N(3-lauroyloxypropyl)Gly][N(2-ethylhexyl)Gly]-NH2)
luciferase
  IM Flux: 1.52E+07 p/s
  SC Flux: 2.18E+07 p/s
hEPO
  hEPO: 37.4 ng/mL
mRNA
  mean percent encapsulation of RNA: 33.5%
Firefly luciferase
  Total Flux: 3.53E+08 p/s
[1]; [3]
  PDI: 0.141
  Particle Size: 126.1 nm
[2]
  % of injected dose remaining in liver: 8.64%
